By IC50 is commonly meant the concentration that inhibits the measured activity by half.

Counter-ions that a name gives are not always drawn. Bounds are passed on as bounds.

For 24 compounds, IC50 results are on record in patent US9907800B2, “Kinase inhibitors and method of treating cancer” (University Health Network, priority 2010, dated 2018).

Format in all cases: biochemical
For experiment [1], the target named is Aurora B (Homo sapiens (Human), UniProt Q96GD4). The experiment is described as follows: Aurora B inhibition assay (Z-Lyte). To be noted: read-out: Aurora B IC50 Ranges.
Sequence of Aurora B (Q96GD4 whole entry): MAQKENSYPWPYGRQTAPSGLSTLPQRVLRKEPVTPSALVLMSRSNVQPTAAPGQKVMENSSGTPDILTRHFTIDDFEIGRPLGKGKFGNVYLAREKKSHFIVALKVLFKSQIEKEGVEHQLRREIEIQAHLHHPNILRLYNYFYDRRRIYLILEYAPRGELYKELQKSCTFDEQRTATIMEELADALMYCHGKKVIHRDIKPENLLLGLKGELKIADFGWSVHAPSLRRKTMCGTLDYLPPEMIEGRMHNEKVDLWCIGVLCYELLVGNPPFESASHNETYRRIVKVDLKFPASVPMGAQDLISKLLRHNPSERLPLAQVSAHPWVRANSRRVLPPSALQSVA
Method: Aurora B inhibition was determined using the Z-Lyte assay kit from Invitrogen. […] The % inhibition values were determined according to the manufacturer's directions and IC50 values were obtained using a non-linear 4 point logistic curve fit (XLfit4, IDBS)
Experiment [2] concerns the target FLT3 (Homo sapiens (Human), UniProt P36888). The experiment is described as follows: FLT3 inhibition assay (Z-Lyte). As to conditions: read-out: Flt3 IC50 Ranges.
Method: The enzymatic activity of FLT3 was determined using the Z-Lyte assay kit from Invitrogen (Invitrogen cat #PV3191). […] The % inhibition values were determined according to the manufacturer's directions and IC50 values were obtained using a non-linear 4 point logistic curve fit (XLfit4, IDBS).
Experiment [3] deals with human PLK4 (Homo sapiens (Human), UniProt O00444). The experiment in a line: PLK4 inhibition assay (indirect ELISA). As to conditions: read-out: PLK4 IC50 Ranges. (An ELISA detects its analyte on a solid surface through an enzyme-linked reagent.)
Sequence of human PLK4 (O00444 1-391): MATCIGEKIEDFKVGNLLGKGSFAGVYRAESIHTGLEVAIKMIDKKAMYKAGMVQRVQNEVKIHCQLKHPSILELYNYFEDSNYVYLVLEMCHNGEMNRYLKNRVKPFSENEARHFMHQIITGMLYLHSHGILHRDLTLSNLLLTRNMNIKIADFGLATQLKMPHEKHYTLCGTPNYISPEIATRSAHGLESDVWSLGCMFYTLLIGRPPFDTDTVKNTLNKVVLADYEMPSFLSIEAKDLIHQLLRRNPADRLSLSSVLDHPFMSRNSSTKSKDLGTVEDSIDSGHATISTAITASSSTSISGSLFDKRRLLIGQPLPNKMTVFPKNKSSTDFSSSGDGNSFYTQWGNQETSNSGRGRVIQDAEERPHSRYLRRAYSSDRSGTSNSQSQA
Method: PLK4 activity was measured using an indirect ELISA detection system. […] The colourimetric reaction was allowed to continue for 5 minutes, followed by addition of stop solution (0.5 N sulphuric acid), and quantified by detection at 450 nm with either a monochromatic or filter based plate reader (Molecular Devices M5 or Beckman DTX880, respectively).
Compounds were pre-incubated in the presence of enzyme for 15 minutes prior to addition of ATP and the activity remaining quantified using the above described activity assay. […] The IC50 value was determined using a non-linear 4 point logistic curve fit (XLfit4, IDBS) with the formula; (A+(B/(1+((x/C)^D)))), where A=background value, B=range, C=inflection point, D=curve fit parameter.

Sequence of FLT3 (P36888 27-993): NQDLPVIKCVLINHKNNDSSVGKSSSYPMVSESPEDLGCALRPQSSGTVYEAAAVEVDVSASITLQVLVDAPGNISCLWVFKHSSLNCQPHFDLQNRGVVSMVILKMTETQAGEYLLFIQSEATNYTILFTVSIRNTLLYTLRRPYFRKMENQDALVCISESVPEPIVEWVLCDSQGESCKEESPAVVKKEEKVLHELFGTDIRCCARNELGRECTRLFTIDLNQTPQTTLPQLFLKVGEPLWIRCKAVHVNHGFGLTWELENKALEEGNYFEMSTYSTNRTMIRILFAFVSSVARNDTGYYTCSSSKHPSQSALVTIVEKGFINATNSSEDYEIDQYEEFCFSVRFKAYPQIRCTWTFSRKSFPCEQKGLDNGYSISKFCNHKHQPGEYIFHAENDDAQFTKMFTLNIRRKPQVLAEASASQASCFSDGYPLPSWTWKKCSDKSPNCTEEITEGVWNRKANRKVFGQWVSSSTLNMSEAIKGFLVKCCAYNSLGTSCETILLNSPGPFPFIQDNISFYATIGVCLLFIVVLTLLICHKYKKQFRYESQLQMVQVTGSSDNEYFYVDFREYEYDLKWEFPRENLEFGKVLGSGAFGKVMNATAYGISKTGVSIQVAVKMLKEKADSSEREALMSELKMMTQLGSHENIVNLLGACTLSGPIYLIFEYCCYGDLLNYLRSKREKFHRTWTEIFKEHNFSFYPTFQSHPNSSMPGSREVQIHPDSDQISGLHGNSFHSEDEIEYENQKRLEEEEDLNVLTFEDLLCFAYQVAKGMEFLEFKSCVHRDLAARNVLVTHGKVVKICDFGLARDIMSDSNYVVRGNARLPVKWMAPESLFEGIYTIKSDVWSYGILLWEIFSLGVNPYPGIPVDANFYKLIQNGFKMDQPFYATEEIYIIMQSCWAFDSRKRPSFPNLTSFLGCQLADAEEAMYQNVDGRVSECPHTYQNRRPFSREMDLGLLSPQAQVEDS

Take `COc1ccc2c(c1)[C@@]1(C[C@@H]1c1ccc3c(-c4ccc(N5CCN(C)CC5)nc4)n[nH]c3c1)C(=O)N2` (stereo in doubt) [Example A16, (1S,2R)-5′-methoxy-2-(3-(6-(4-methylpiperazin-1-yl)pyridin-3-yl)-1H-indazol-6-yl)spiro[cyclopropane-1,3′-indolin]-2′-one]: the IC50 in experiment [1], in experiment [2] and in experiment [3] was under 100 nM in each case.
For the compound `COc1ccc2c(c1)[C@]1(C[C@H]1c1ccc3c(-c4ccc(N(C)CCN(C)C)cc4)n[nH]c3c1)C(=O)N2` [Example A129, (1R,2S)-2-(3-(4-((2-(dimethylamino)ethyl)(methyl)amino)phenyl)-1H-indazol-6-yl)-5′-methoxyspiro[cyclopropane-1,3′-indolin]-2′-one 2,2,2-trifluoroacetate], the results for the IC50 in experiment [1], in experiment [2] and in experiment [3] were under 100 nM, 100 to 1000 nM and under 100 nM, respectively.
Turning to `COc1ccc2c(c1)[C@]1(C[C@H]1c1ccc3c(/C=C/c4ccc(N5CCN(C)CC5)cc4)n[nH]c3c1)C(=O)N2` [Example A175, (1R,2S)-(E)-5′-methoxy-2-(3-(4-(4-methylpiperazin-1-yl)styryl)-1H-indazol-6-yl)spiro[cyclopropane-1,3′-indolin]-2′-one 2,2,2-trifluoroacetate], the IC50 in experiment [1], in experiment [2] and in experiment [3] was under 100 nM in each case.
Consider `COCCN1C(=O)[C@@]2(C[C@H]2c2ccc3c(/C=C/c4ccc(CN(C)C)cc4)n[nH]c3c2)c2ccccc21` [Example A131, (1R,2S)-(E)-2-(3-(4-((dimethylamino)methyl)styryl)-1H-indazol-6-yl)-1′-(2-methoxyethyl)spiro[cyclopropane-1,3′-indolin]-2′-one 2,2,2-trifluoroacetate], for which the IC50 in experiment [1] was under 100 nM; in experiment [2] it was over 1000 nM; in experiment [3], under 100 nM.
For `COc1ccc2c(c1)[C@]1(C[C@H]1c1ccc3c(/C=C/c4cccc(CN(C)C)c4)n[nH]c3c1)C(=O)N2` [Example A134, (1R,2S)-2-(3-(3-((dimethylamino)methyl)styryl)-1H-indazol-6-yl)-5′-methoxyspiro[cyclopropane-1,3′-indolin]-2′-one 2,2,2-trifluoroacetate], the IC50 in experiment [2] was under 100 nM.
Regarding `COc1ccc2c(c1)[C@]1(C[C@H]1c1ccc3c(/C=C/c4ccc(CN5C[C@@H](C)O[C@@H](C)C5)cc4)n[nH]c3c1)C(=O)N2` [Example A185], the IC50 in experiment [2] was 100 to 1000 nM.
In the case of `COc1ccc2c(c1)[C@]1(C[C@H]1c1ccc3c(/C=C/c4cccc(CN5CCOCC5)c4)n[nH]c3c1)C(=O)N2` [Example A132, (1R,2S)-5′-methoxy-2-(3-(3-(morpholinomethyl)styryl)-1H-indazol-6-yl)spiro[cyclopropane-1,3′-indolin]-2′-one 2,2,2-trifluoroacetate], in experiment [2], the concentration for half-maximal inhibition (IC50) was under 100 nM.
The same measure, in the same setting: under `COc1ccc2c(c1)[C@]1(C[C@H]1c1ccc3c(-c4ccc(N5CCN(C(C)C)CC5)cc4)n[nH]c3c1)C(=O)N2` [Example A97, (1R,2S)-2-(3-(4-(4-isopropylpiperazin-1-yl)phenyl)-1H-indazol-6-yl)-5′-methoxyspiro[cyclopropane-1,3′-indolin]-2′-one 2,2,2-trifluoroacetate] stands under 100 nM.
With `COc1ccc2c(c1)[C@]1(C[C@H]1c1ccc3c(-c4ccc(N5CC[C@H](N(C)C)C5)cc4)n[nH]c3c1)C(=O)N2` [Example A128, (1R,2S)-2-(3-(4-((S)-3-(dimethylamino)pyrrolidin-1-yl)phenyl)-1H-indazol-6-yl)-5′-methoxyspiro[cyclopropane-1,3′-indolin]-2′-one 2,2,2-trifluoroacetate], the IC50 is 100 to 1000 nM in experiment [2] and under 100 nM in experiment [3].
In the case of `CN1CCN(c2ccc(-c3n[nH]c4cc([C@@H]5C[C@@]56C(=O)Nc5ccc(N)cc56)ccc34)cc2)CC1` (relative stereo) [Example A86, (1R*,2S*)-5′-amino-2-(3-(4-(4-methylpiperazin-1-yl)phenyl)-1H-indazol-6-yl)spiro[cyclopropane-1,3′-indolin]-2′-one], the IC50 in experiment [1] was 100 to 1000 nM; in experiment [3], under 100 nM.
For `COc1ccc2c(c1)[C@]1(C[C@H]1c1ccc3c(-c4ccc(N5CC[C@@H](N(C)C)C5)cc4)n[nH]c3c1)C(=O)N2` [Example A127, (1R,2S)-2-(3-(4-((R)-3-(dimethylamino)pyrrolidin-1-yl)phenyl)-1H-indazol-6-yl)-5′-methoxyspiro[cyclopropane-1,3′-indolin]-2′-one 2,2,2-trifluoroacetate] the same measures were under 100 nM and under 100 nM.
On to `COc1ccc2c(c1)[C@]1(C[C@H]1c1ccc3c(/C=C/c4cccc(CN(C)C)c4)n[nH]c3c1)C(=O)N2` (relative stereo) [Example A135, (1R*,2S*)-2-(3-(3-((dimethylamino)methyl)styryl-1H-indazol-6-yl)-5′-methoxyspiro[cyclopropane-1,3′-indolin]-2′-one 2,2,2-trifluoroacetate], for which the IC50 in experiment [1] and in experiment [3] was under 100 nM in each case.
For the compound `COc1ccc2c(c1)[C@]1(C[C@H]1c1ccc3c(/C=C/c4ccc(N5CCN(C)CC5)cc4)n[nH]c3c1)C(=O)N2` (relative stereo) [Example A174, (1R*,2S*)-(E)-5′-methoxy-2-(3-(4-(4-methylpiperazin-1-yl)styryl)-1H-indazol-6-yl)spiro[cyclopropane-1,3′-indolin]-2′-one 2,2,2-trifluoroacetate], the IC50 in experiment [1] and in experiment [3] was under 100 nM each time.
With `COc1ccc2c(c1)[C@]1(C[C@H]1c1ccc3c(-c4ccc(C5CCN(C)CC5)cc4)n[nH]c3c1)C(=O)N2` [Example A123, (1R,2S)-5′-methoxy-2-(3-(4-(1-methylpiperidin-4-yl)phenyl)-1H-indazol-6-yl)spiro[cyclopropane-1,3′-indolin]-2′-one hydrochloride], the IC50 in experiment [1] and in experiment [3] was under 100 nM throughout.
Take `COc1ccc2c(c1)[C@@]1(C[C@@H]1c1ccc3c(-c4ccc(N5CCN(C)CC5)nc4)n[nH]c3c1)C(=O)N2` [Example A15, (1S,2R)-5′-methoxy-2-(3-(6-(4-methylpiperazin-1-yl)pyridin-3-yl)-1H-indazol-6-yl)spiro[cyclopropane-1,3′-indolin]-2′-one]: the values for the IC50 in experiment [1] and in experiment [3] were over 1000 nM and under 100 nM, respectively.
`O=C1Nc2ccccc2[C@]12C[C@H]2c1ccc2c(/C=C/c3csc(CN4CCOCC4)c3)n[nH]c2c1` [Example A202, (1R,2S)-2-(3-((E)-2-(5-(morpholinomethyl)thiophen-3-yl)vinyl)-1H-indazol-6-yl)spiro[cyclopropane-1,3′-indolin]-2′-one 2,2,2-trifluoroacetate]: the half-maximal inhibitory concentration (IC50) in experiment [1] and in experiment [3] was under 100 nM in each case.
As to `COc1ccc2c(c1)[C@]1(C[C@H]1c1ccc3c(/C=C/c4cccc(CN5CCOCC5)c4)n[nH]c3c1)C(=O)N2` (relative stereo) [Example A133, (1R*,2S*)-5′-methoxy-2-(3-(3-(morpholinomethyl)styryl)-1H-indazol-6-yl)spiro[cyclopropane-1,3′-indolin]-2′-one 2,2,2-trifluoroacetate], the IC50 in experiment [1] and in experiment [3] was under 100 nM throughout.
In the case of `COc1ccc2c(c1)[C@]1(C[C@H]1c1ccc3c(/C=C/c4ccc(CN5CCOCC5)c(F)c4)n[nH]c3c1)C(=O)N2` [Example A199, (1R,2S)-(E)-2-(3-(3-fluoro-4-(morpholinomethyl)styryl)-1H-indazol-6-yl)-5′-methoxyspiro[cyclopropane-1,3′-indolin]-2′-one 2,2,2-trifluoroacetate], the IC50 in experiment [1] and in experiment [3] was under 100 nM throughout.
Regarding `CCN1CCN(c2ccc(-c3n[nH]c4cc([C@@H]5C[C@@]56C(=O)Nc5ccc(OC)cc56)ccc34)cc2)CC1` (relative stereo) [Example A98, (1R*,2S*)-2-(3-(4-(4-ethylpiperazin-1-yl)phenyl)-1H-indazol-6-yl)-5′-methoxyspiro[cyclopropane-1,3′-indolin]-2′-one 2,2,2-trifluoroacetate], the IC50 in experiment [1] and in experiment [3] was under 100 nM throughout.
Regarding `COc1ccc2c(c1)[C@@]1(C[C@@H]1c1ccc3c(-c4ccc(N5CCNCC5)cc4)n[nH]c3c1)C(=O)N2` [Example A50, (1S,2R)-5′-methoxy-2-(3-(4-(piperazin-1-yl)phenyl)-1H-indazol-6-yl)spiro[cyclopropane-1,3′-indolin]-2′-one 2,2,2-trifluoroacetate], the IC50 in experiment [1] and in experiment [3] was under 100 nM throughout.
For the compound `COc1ccc2c(c1)[C@]1(C[C@H]1c1ccc3c(-c4ccc(N5CCC(N6CCOCC6)CC5)cc4)n[nH]c3c1)C(=O)N2` [Example A121, (1R,2S)-5′-methoxy-2-(3-(4-(4-morpholinopiperidin-1-yl)phenyl)-1H-indazol-6-yl)spiro[cyclopropane-1,3′-indolin]-2′-one 2,2,2-trifluoroacetate], the IC50 in experiment [1] and in experiment [3] was under 100 nM throughout.
As to `COc1ccc2c(c1)[C@]1(C[C@H]1c1ccc3c(/C=C/c4ccc(OCCN5CCOCC5)cc4)n[nH]c3c1)C(=O)N2` [Example A194, (1R,2S)-(E)-5′-methoxy-2-(3-(4-(2-morpholinoethoxy)styryl)-1H-indazol-6-yl)spiro[cyclopropane-1,3′-indolin]-2′-one 2,2,2-trifluoroacetate], the IC50 in experiment [1] and in experiment [3] was under 100 nM each time.
As to `N#Cc1ccc(/C=C/c2n[nH]c3cc([C@@H]4C[C@@]45C(=O)Nc4ccccc45)ccc23)cc1` (relative stereo) [Example A54, 4-((E)-2-(6-((1R*,2S*)-2′-oxospiro[cyclopropane-1,3′-indoline]-2-yl)-1H-indazol-3-yl)vinyl)benzonitrile], the IC50 is 100 to 1000 nM in experiment [1] and under 100 nM in experiment [3].
The like results for `CC(C)(c1ccc(/C=C/c2n[nH]c3cc([C@@H]4C[C@@]45C(=O)Nc4ccccc45)ccc23)cc1)N1CCOCC1` [Example A80, (1R,2S)-(E)-2-(3-(4-(2-morpholinopropan-2-yl)styryl)-1H-indazol-6-yl)spiro[cyclopropane-1,3′-indolin]-2′-one 2,2,2-trifluoroacetate salt] were, in that order, 100 to 1000 nM and under 100 nM.
